Laboratory results as given in patent US9943496B2, “Dietary supplement based on ethyl ferulate” (LABORATORIOS MINKAB, S. A. DE C. V., priority 2015, dated 2018).

What was measured:
β receptors = settings: bovine satellite cells, in vitro; cited from earlier work
swine = settings: 50 ppm, swine confinement; cited from earlier work
[1] = compared with ferulic acid; cited from earlier work
heifers [2] = assay: Productive performance test of heifers supplemented with ethyl ferulate in the diet; type: in vivo, Bos taurus; settings: for Final weight: last 30 days of intensive feeding; for Final weight / Feed conversion / Daily gain / Feed intake: mean ± standard error; for Feed conversion / Daily gain / Feed intake: last 30 days; for Feed conversion: feed consumption/daily gain
Method: Productive performance test was conducted in the feedlot of a commercial farm, located in the state of Sonora, Mexico, at an altitude of 210 meters above sea level, latitude 29° 05′ 56″ and longitude 110° 57′ 15″ (INEGI, 2012).
Prior to the start of the study, 270 cattle (heifers) commercial beef producers crosses (of racial influence mainly Bos taurus), which were divided into three lots with uniform power days, racial origin and composition were selected. The animals were weighed individually and identified with plastic earring different color, to be distributed randomly according to a block design (3) complete random. To facilitate the handling of heifers and scheduling your humane slaughter, each block was postponed one week and was formed by three pens with 30 animals each.
Once done animals blocks, each pen within each block was completely randomized one of the following treatments: • Treatment CONT: Animals receiving the basal diet without additive (control). • Treatment FE5: Animals receiving the basal diet supplemented the last 30 days of fattening stage 5 ppm of ethyl ferulate. • Treatment FE10: Animals receiving the basal diet supplemented the last 30 days of the fattening phase with 10 ppm of ethyl ferulate.
The initial live weight of the animals was 484.68±2.84 kg. All animals were fed a basal diet with a ratio of forage:concentrate of 20:80, which was formulated to contain 1.62 Mcal of net energy gain/kg of feed, 12.7% crude protein, 0.91% Calcium and 0.27% phosphorus. The amount of ethyl ferulate per ton of feed was first added to the mineral premix and later it was incorporated into the automated experimental ration.
All animals were individually weighed at the beginning and end of the experimental test, for which an electronic scale Tru-Test 300 (Tru-Test Corporation, New Zealand) equipped with recording memory was used. Daily weight gain (GDP) was estimated by the difference between initial and final weight and divided by 30 (the feeding period).
Feed intake was recorded daily for corral, for which both the food offered and refused was weighed. Feed conversion per pen/treatment with the average food consumption ratio between GDP was also calculated.
(§1) Productive performance data were analyzed by ANOVA with a design of a randomized complete block using the method of generalized linear models (GLM) using initial weight as a covariate; data carcass quality were analyzed under a completely randomized design blocks. The variance analysis (mixed models procedure), included as a fixed effect to experimental treatments and as a random effect the initial weight of animals for productive performance data and final weight for carcass quality. The study data shelf life was analyzed using analysis of variance of two ways, considering the fixed effects of treatment and storage time. When differences between treatments were detected in productive performance variables and carcass quality, comparisons of means were performed by orthogonal contrasts. The following contrasts were tested: Contrast 1: Control vs FE5+FE10; Contrast 2: FE5 vs FE10. For data quality meat in the study of oxidative stability, the comparison of means was by the Tukey test. All data were processed in the statistical package NCSS (NCSS Version 8.0, 2012).

heifers [3] = assay: Sacrifice and evaluation of carcass quality of supplemented heifers; type: in vivo, Bos taurus; settings: for Backfat / Cold carcass yield / Hot yield carcass / Rib eye area / Cold carcass weight / Hot carcass weight: last 30 days; for Cold carcass weight: 24 h postmortem; for Hot carcass weight: mean ± standard error; for Marbling: USDA marbling score (Little 500-599, Modesto 600-699); for % de Choice or greater: percentage of carcass classified Choice or higher
Method: Once the productive performance test was finished, the animals were sacrificed following the current regulations.
The pH was measured at 45 min and 24 h postmortem in the Longissimus dorsi (LD) at the 12th intercostal space using a portable digital potentiometer brand HANNA HI 99163 (Mettler-Toledo Process Analytical Inc., Wilmington, Mass., USA). The weight of the hot carcass was recorded, then the carcasses were cooled to 0° C. for 24 h.
At 24 h postmortem the weight of the cold carcass was measured. In at least 36 carcasses per treatment, area in cm^2 rib eye, the thickness of back fat in mm, was evaluated. The degree of marbling was also evaluated following USDA guidelines (2000): Trace (300-399), Light (400-499), Little (500-599), Modest (600-699), Moderate (700-799), Slightly abundant (800-899). These determinations were made in the LD muscle to level 12th intercostal space. Finally, the quality level of the channel according to USDA (2000) was estimated, based on the degree of marbling and carcass physiological maturity: Select − (400-449), Select + (450-499) Choice − (500-599), Choice medium (600-699), Choice + (700-799), Prime (800 or greater).
as §1

[4] = contrast C1: Control vs FE5+FE10, P<0.05
[5] = FE supplemented vs control, P<0.05

Structure (SMILES): COc1cc(/C=C/C(=O)O)ccc1O [AF, Ferulic acid]
- Recognition by β receptors on the cell membrane (β receptors): recognized by β receptors
- Back fat thickness over the control group (swine): decrease

Structure (SMILES): CCOC(=O)/C=C/c1ccc(O)c(OC)c1 [ethyl ferulate]
- Antibacterial and antioxidant capacity [1]: very similar to those of ferulic acid
- Final weight (heifers [2]; FE5: 5 ppm/day): 519.58 ± 5.4 kg
- Feed conversion (heifers [2]; FE5: 5 ppm/day): 8.78 ± 0.6 kg
- Daily gain (heifers [2]; FE5: 5 ppm/day): 1.13 ± 0.04 kg
- Feed intake (heifers [2]; FE5: 5 ppm/day): 8.11 ± 0.07 kg
- Final weight (heifers [2]; FE10: 10 ppm/day): 520.20 ± 5.63 kg
- Feed conversion (heifers [2]; FE10: 10 ppm/day): 7.25 ± 0.27 kg
- Daily gain (heifers [2]; FE10: 10 ppm/day): 1.23 ± 0.04 kg
- Feed intake (heifers [2]; FE10: 10 ppm/day): 8.09 ± 0.07 kg
- Less feed required to gain one kilogram of live weight (heifers [2]; FE supplemented heifers vs control): 4.3 kg
- Improvement in feed conversion relative to control (heifers [2]; [4]): 35%
- Increase of daily gain (GDP) relative to control (heifers [2]; [4]): 26%
- Thickness of the dorsal fat, effect of treatments (heifers [3]; 5 and 10 ppm vs control, P>0.05): not affected by treatments
- Marbling, 10 ppm FE regarding 5 ppm FE (heifers [3]; 10 ppm vs 5 ppm): higher marbling
- Backfat (heifers [3]; FE5: 5 ppm/day): 14.60 ± 1.05 mm
- Cold carcass yield (heifers [3]; FE5: 5 ppm/day): 61.77 ± 0.16%
- Hot yield carcass (heifers [3]; FE5: 5 ppm/day): 62.38 ± 0.15%
- Rib eye area (heifers [3]; FE5: 5 ppm/day): 85.67 ± 2.28 cm^2
- Cold carcass weight (heifers [3]; FE5: 5 ppm/day): 320.81 ± 3.25 kg
- Hot carcass weight (heifers [3]; FE5: 5 ppm/day): 323.97 ± 3.25 kg
- Marbling (heifers [3]; FE5: 5 ppm/day): 578.57 ± 16
- % de Choice or greater (heifers [3]; FE5: 5 ppm/day): 66.7%
- Backfat (heifers [3]; FE10: 10 ppm/day): 15.82 ± 0.84 mm
- Cold carcass yield (heifers [3]; FE10: 10 ppm/day): 61.68 ± 0.19%
- Hot yield carcass (heifers [3]; FE10: 10 ppm/day): 62.39 ± 0.19%
- Rib eye area (heifers [3]; FE10: 10 ppm/day): 86.60 ± 1.87 cm^2
- Cold carcass weight (heifers [3]; FE10: 10 ppm/day): 320.50 ± 3.19 kg
- Hot carcass weight (heifers [3]; FE10: 10 ppm/day): 324.19 ± 3.23 kg
- Marbling (heifers [3]; FE10: 10 ppm/day): 637.14 ± 15
- % de Choice or greater (heifers [3]; FE10: 10 ppm/day): 80%
- Hot carcass weight (PCC) greater than control (heifers [3]; FE supplemented heifers vs control, P<0.001): 1.80%
- Increase of cold carcass weight (PCF) vs control (heifers [3]; [5]): 1.86%
- Marbling of supplemented compared to non supplemented animals (heifers [3]; [5]): More marbling
- Increase in carcass weight vs control (heifers [3]; hot carcass, FE supplemented vs control): more than 5 kg
